How the values were obtained:
[1] = Particle size, PdI and zeta potential of mRNA-encapsulating LNPs (dynamic light scattering); assay type: physicochemical; conditions: mRNA-encapsulating LNP, cationic lipid:DOPC:Chol=55:5:40 + about 1 mol DMG-PEG2k; for PdI / particle size: dynamic light scattering; for zeta potential: physiological pH
Protocol: (§1) A 10 mM ethanol solution of cationic lipid, a 5 mM ethanol solution of DOPC, and a 10 mM ethanol solution of Chol were mixed at desired ratio (cationic lipid:DOPC:Chol=55:5:40 (molar ratio)) in an Eppendorf tube to achieve the total lipid amount of 720 nmol. To the obtained mixture was further added DMG-PEG2k (2 mM ethanol solution) in an amount of about 1 mol with respect to the total amount 100 mol of cationic lipid, DOPC, and Chol, and then ethanol was added to prepare an ethanol solution of the lipid (total amount: 360 μL).
An acidic buffer solution (total amount: 1080 μL) of nucleic acid was prepared by weighing 7.2 μg of mRNA solution (0.6 mg/mL) in a 5 mL tube and adding acidic malate buffer (20 mM, pH 3.0) containing NaCl at a final concentration of 30 mM.
An acidic buffer solution of nucleic acid and an ethanol solution of lipid were each weighed in a syringe. Using an ultra high-speed nanomedicament producing apparatus NanoAssmblr (manufactured by Precision NanoSystems), LNP was prepared under the conditions of addition rate of acidic buffer solution of nucleic acid: 3 mL/min, addition rate of ethanol solution of lipid: 1 mL/min, and syringe holder temperature: 25° C., and collected in a 15 mL tube. MES buffer (pH 6.5) (3000 μL) was added to the 15 mL tube, the obtained mixture was transferred to Amicon Ultra 4, and ultrafiltration was performed under centrifugation conditions (25° C., 1000 g, 6 min) to concentrate the mixture to about 100 μL. The obtained concentrate was diluted with PBS to 4 mL, and the mixture was concentrated again under centrifugation conditions (25° C., 1000 g, 6 min), and this operation was performed twice. The obtained concentrate was diluted with PBS to a lipid concentration of 2 mM to give a dispersion containing LNP.
The particle size, PdI (Polydispersity Index), and zeta potential of the mRNA-encapsulating LNP prepared by the method of the above-mentioned 1 were measured by a dynamic light scattering method. In Comparative Example, the cationic lipid described in the aforementioned Table 3 were used.

HeLa cells = assay: Evaluation of in vitro gene expression in HeLa cell (luciferase mRNA-encapsulating LNP); assay type: cell-based, human; conditions: for cumulative luciferase luminescence intensity over 24 hr: luciferase mRNA 0.4 μg per dish, LNP cationic lipid:DOPC:Chol:DMG-PEG2k=55:5:40:1; for gene expression activity compared to Comparative Example: result in words
Protocol: (§2) LNP encapsulating mRNA that expresses luciferase (cationic lipid:DOPC:Chol:DMG-PEG2k=55:5:40:1 (molar ratio)) was prepared by the method described in [Experimental Example 2], 1.
HeLa cells, which are human cervical cancer cells, were seeded in a 3.5 cm dish at 5.0×10^4 cells/2 mL/Dish 24 hours before transfection. After 24 hours, the medium was exchanged with a culture medium (D-MEM) containing 0.1 mM D-luciferin. Prepared mRNA-encapsulating LNP was diluted with PBS such that the concentration of mRNA was about 8 μg/mL. The diluted mRNA-encapsulating LNP solution (about 50 μL, mRNA: 0.4 μg) was added to the 3.5 cm dish and set in an incubator luminometer KronosDio. The luminescence intensity of luciferase was measured for 2 min every one hour. The cumulative luciferase luminescence intensity for 24 hr was calculated from the obtained time change of expression. For example, “1.0E+06” means “1.0×10^6”. In Comparative Example, the cationic lipid described in the aforementioned Table 3 were used.

[2] = Measurement of Liposomal pKa of LNP (TNS fluorescence); assay type: physicochemical; conditions: LNP without nucleic acid, cationic lipid:DOPC:Chol=52.5:7.5:40 + about 1.5 mol DMG-PEG2k; pH at which relative TNS fluorescence intensity was 50%
Protocol: Lipid nanoparticles (LNP) without containing nucleic acid were used for the evaluation of Liposomal pKa.
as §1, with “(cationic lipid:DOPC:Chol=52.5:7.5:40” for “(cationic lipid:DOPC:Chol=55:5:40”, “about 1.5” for “about 1”
An acidic malic acid buffer (20 mM, pH 3.0) (1080 μL) containing NaCl at a final concentration of 30 mM and an ethanol solution (360 μL) of lipid were each weighed in a syringe. Using an ultra high-speed nanomedicament producing apparatus NanoAssmblr (manufactured by Precision NanoSystems), LNP was prepared under the conditions of addition rate of acidic buffer solution: 3 mL/min, addition rate of ethanol solution of lipid: 1 mL/min, and syringe holder temperature: 25° C., and collected in a 15 mL tube. MES buffer (pH 6.5) (3000 μL) was added to the 15 mL tube, the obtained mixture was transferred to Amicon Ultra 4, and ultrafiltration was performed under centrifugation conditions (25° C., 1000 g, 6 min) to concentrate the mixture to about 100 μL. The obtained concentrate was diluted with PBS to 4 mL, and the mixture was concentrated again under centrifugation conditions (25° C., 1000 g, 6 min), and this operation was performed twice. The obtained concentrate was diluted with PBS to a lipid concentration of 0.5 mM to give a dispersion containing LNP.
20 mM Citrate buffer, sodium phosphate buffer, and tris HCl buffer, each containing NaCl at a final concentration of 150 mM and adjusted to various pHs within the range of pH 3.0 to 10.0, were prepared. TNS (manufactured by Sigma) was diluted with ultrapure water to 0.6 mM. TNS solution (2 μL), dispersions (12 μL) containing LNP prepared in [Experimental Example 1], 1., and buffers adjusted to various pHs (186 μL) were added to a black 96 well plate. The plate was protected from light and shaken at 400 rpm for 10 min. The fluorescence intensity (excitation: 321 nm/emission: 447 nm) was measured using a plate reader (manufactured by TECAN). The relative fluorescence intensity was calculated as a percentage, with the maximum value of the fluorescence intensity in each LNP being 100% and the minimum value being 0%. Furthermore, the pH at which the relative fluorescence intensity was 50% was taken as Liposomal pKa. In Comparative Example, the cationic lipid described in the aforementioned Table 3 were used.

BALB/c mouse = assay: Evaluation of in vivo gene expression (luciferase mRNA-encapsulating LNP, IVIS of isolated organs); conditions: for relative value based on Comparative Example (amount of luminescence in spleen): relative to O-Ph-P4C2 LNP = 1.00; for amount of luminescence in each organ: heart / amount of luminescence in each organ: kidney / amount of luminescence in each organ: liver / amount of luminescence in each organ: lung / amount of luminescence in each organ: spleen: tail vein, mRNA 0.05 mg/kg, 4.5 hr + 15 min after administration; for amount of luminescence in each organ: spleen: spleen (Table 7)
Protocol: as §2
The prepared each mRNA-encapsulating LNP dispersion was administered from the tail vein of BALB/c mouse (male, 5-week-old). The dose of mRNA was set to 0.05 mg per 1 kg body weight of the mouse, and the dose of the mRNA-encapsulating LNP dispersion was set to 10 μL per 1 g body weight of the mouse. After 4.5 hr from the administration of the mRNA-encapsulating LNP dispersion, a PBS solution of D-luciferin potassium was administered into the abdominal cavity of the mouse. The dose of D-luciferin potassium was set to 3 mg per mouse, and the dose of the PBS solution of D-luciferin potassium was set to 200 μL per mouse. After 15 min from the administration of the PBS solution of D-luciferin potassium, the mouse was euthanized, and the liver, spleen, kidney, heart, and lung were isolated. The luminescence in each organ was quantified using an in vivo imaging system (IVIS) with an exposure of 10 sec. The amount of luminescence in each organ was quantified by image analysis using Live Imaging software attached to IVIS. The amount of luminescence (photons/sec) was calculated from the acquired image and used as an index of gene expression activity. “E+0a” (a: integer) indicated in Table 7 and Table 8 means “10^a”. For example, “1.0E+02” means “1.0×10^2”. In Comparative Example, the cationic lipid described in the aforementioned Table 3 were used.

Row | SMILES | PdI [1] | particle size [1] [nm] | zeta potential [1] [mV] | pKa [2] | cumulative luciferase luminescence intensity over 24 hr (HeLa cells) [RLU] | gene expression activity compared to Comparative Example (HeLa cells) | relative value based on Comparative Example (amount of luminescence in spleen) (BALB/c mouse) | amount of luminescence in each organ: heart (BALB/c mouse) [photons/sec] | amount of luminescence in each organ: kidney (BALB/c mouse) [photons/sec] | amount of luminescence in each organ: liver (BALB/c mouse) [photons/sec] | amount of luminescence in each organ: lung (BALB/c mouse) [photons/sec] | amount of luminescence in each organ: spleen (BALB/c mouse) [photons/sec]
1 | CCCCCCCCCCCCCCC(CCCCCCCCCCCCCC)C(=O)Oc1ccc(CC(=O)OCCSSCCOC(=O)CCCN(C)C)cc1 [Example 7] | 0.077 | 92 | 6.8 | 7.8 | 2.13E+08 | superior gene expression activity | 0.37 | 6.86E+05 | 6.35E+05 | 1.23E+06 | 8.28E+05 | 4.03E+06
2 | CCCCCCCCCCCCCCCCC(CCCCCCCCCCCCCCCC)C(=O)Oc1ccc(CC(=O)OCCSSCCOC(=O)C(C)CN(C)C)cc1 (stereo not shown) [Example 13] | 0.086 | 94 | −10.2 | 6.3 | 1.44E+05 |  | 0.19 | 1.00E+06 | 8.00E+05 | 5.00E+07 | 8.67E+05 | 2.00E+06
3 | CCCCCCCCCCCCCCCCC(CCCCCCCCCCCCCCCC)C(=O)Oc1ccc(CC(=O)OCCSSCCOC(=O)NCCN(C)C)cc1 [Example 21] | 0.118 | 116 | 6.4 | 7.9 | 1.22E+08 | superior gene expression activity | 0.05 | 3.41E+05 | 5.83E+05 | 3.68E+05 | 6.51E+05 | 5.86E+05

Now from value to molecule, other results behind:

Row | PdI [1] | particle size [1] [nm] | zeta potential [1] [mV] | pKa [2] | SMILES | cumulative luciferase luminescence intensity over 24 hr (HeLa cells) [RLU] | gene expression activity compared to Comparative Example (HeLa cells) | relative value based on Comparative Example (amount of luminescence in spleen) (BALB/c mouse) | amount of luminescence in each organ: heart (BALB/c mouse) [photons/sec] | amount of luminescence in each organ: kidney (BALB/c mouse) [photons/sec] | amount of luminescence in each organ: liver (BALB/c mouse) [photons/sec] | amount of luminescence in each organ: lung (BALB/c mouse) [photons/sec] | amount of luminescence in each organ: spleen (BALB/c mouse) [photons/sec]
4 | 0.090 | 96 | 4.7 | 7.5 | CCCCCCCCCCCCCCCCC(CCCCCCCCCCCCCCCC)C(=O)Oc1ccc(CC(=O)OCCSSCCOC(=O)NCCN(CC)CC)cc1 [Example 22] | 2.38E+08 | superior gene expression activity | 0.29 | 3.91E+05 | 4.45E+05 | 8.31E+06 | 5.20E+05 | 3.16E+06
5 | 0.160 | 94 | 13.8 | 8.3 | CCCCCCCCCCCCCCCCC(CCCCCCCCCCCCCCCC)C(=O)Oc1ccc(CC(=O)OCCSSCCOC(=O)NCCCN(C)C)cc1 [Example 23] | 2.05E+07 | superior gene expression activity | 0.04 |  | 1.53E+05 | 2.36E+05 | 5.02E+05 | 4.45E+05
6 | 0.109 | 96 | 12.2 | 8.2 | CCCCCCCCCCCCCCCCC(CCCCCCCCCCCCCCCC)C(=O)Oc1ccc(CC(=O)OCCSSCCOC(=O)N(C)CCCN(C)C)cc1 [Example 24] | 6.22E+07 | superior gene expression activity | 0.05 | 4.78E+05 | 4.84E+05 | 5.08E+05 | 5.58E+05 | 5.09E+05
